Results: patent US20240174618A1, “SUBSTITUTED (2-HETEROARYLOXYPHENYL)SULFONATES, SALTS THEREOF AND THEIR USE AS HERBICIDAL AGENTS” (Bayer Aktiengesellschaft, priority 2021, published 2024)

Experiments:
Assay type in all cases: in vivo
[1] = system: Matricaria inodora (MATIN); assay: A. Herbicidal pre-emergence efficacy, MATIN
Procedure, shortened: (§1)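 Applied before emergence onto covering soil at rates of 1280 g/ha or less, using 600 L/ha spray water with 0.5% additive. Scoring: visual % efficacy after ~3 weeks, greenhouse.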

[2] = system: Echinochloa crus-galli (ECHCG); assay: A. Herbicidal pre-emergence efficacy, ECHCG; settings: scored visually after about 3 weeks vs untreated controls
Procedure, shortened: as §1

Setaria viridis (SETVI) = assay: C. Herbicidal pre-emergence efficacy, SETVI; settings: scored after about 3 weeks
Procedure, shortened: (§2)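 Pre-emergence test: formulated compounds sprayed as aqueous suspension or emulsion with 0.5% additive at 600 l/ha onto soil covering sown seeds, at rates corresponding to 320 g/ha or less. After about 3 weeks in greenhouse, efficacy scored visually as percent versus untreated controls (100% = plants dead).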

Kochia scoparia (KCHSC) = assay: A. Herbicidal pre-emergence efficacy, KCHSC
Procedure, shortened: as §1

Lolium rigidum (LOLRI) = assay: A. Herbicidal pre-emergence efficacy, LOLRI
Procedure, shortened: as §1

Poa annua (POAAN) = assay: B. Herbicidal post-emergence efficacy, POAAN
Procedure, shortened: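 Post-emergence greenhouse test: one-leaf-stage plants, compound (WP/EC, +0.5% additive, 600 L/ha water, ≤1280 g/ha) applied to green parts; % efficacy scored visually vs untreated after ~3 wk; 100% = plants died.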

[3] = system: Amaranthus retroflexus (AMARE); assay: E. Herbicidal post-emergence efficacy, AMARE
Procedure, shortened: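 Compounds applied at 320 g/ha or less as a foliar spray (600 l/ha, 0.5% additive) to one-leaf-stage greenhouse plants grown in sandy loam. Damage is visually scored in percent relative to untreated plants after about 3 weeks.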

[4] = system: Digitaria sanguinalis (DIGSA); assay: C. Herbicidal pre-emergence efficacy, DIGSA; settings: scored after about 3 weeks
Procedure, shortened: as §2

[5] = 320 g/ha, scored visually after about 3 weeks vs untreated controls
[6] = pre-emergence, dosage 1280 g/ha
[7] = 80 g/ha, scored visually after about 3 weeks vs untreated controls

Row | SMILES | Pre-emergence efficacy against MATIN [1, 5] | Pre-emergence efficacy against MATIN [1, 6] | Pre-emergence efficacy against ECHCG ([2]; 320 g/ha) | Pre-emergence efficacy against ECHCG ([2]; 1280 g/ha) | Pre-emergence efficacy against SETVI (Setaria viridis (SETVI); 80 g/ha) | Pre-emergence efficacy against SETVI (Setaria viridis (SETVI); 320 g/ha) | Pre-emergence efficacy against KCHSC (Kochia scoparia (KCHSC); [7]) | Pre-emergence efficacy against KCHSC (Kochia scoparia (KCHSC); pre-emergence, dosage 320 g/ha) | Pre-emergence efficacy against KCHSC (Kochia scoparia (KCHSC); [6]) | Pre-emergence efficacy against LOLRI (Lolium rigidum (LOLRI); dosage 320 g/ha) | Pre-emergence efficacy against LOLRI (Lolium rigidum (LOLRI); dosage 1280 g/ha) | Post-emergence efficacy against POAAN (Poa annua (POAAN); 320 g/ha) | Post-emergence efficacy against POAAN (Poa annua (POAAN); 1280 g/ha) | Post-emergence efficacy against AMARE in % ([3]; application rate 80 g/ha) | Post-emergence efficacy against AMARE in % ([3]; application rate 320 g/ha) | Pre-emergence efficacy against DIGSA ([4]; 80 g/ha) | Pre-emergence efficacy against DIGSA ([4]; 320 g/ha) | Pre-emergence efficacy against ECHCG ([2]; 80 g/ha) | Post-emergence efficacy against POAAN (Poa annua (POAAN); 80 g/ha)
1 | O=S(=O)(CCCC(F)(F)F)Oc1c(Cl)cccc1Oc1ncc(Cl)cn1 [Example I-39] | 100% | 100% | 90% | 100% | 100% | 100% | 100% | 100% | 100% | 100% | 100% | 90% | 90% | 100% | 100% | 100% | 100% |  | 
2 | CC(C)CS(=O)(=O)Oc1ccccc1Oc1ncc(Cl)cn1 [Example I-7, [2-(5-Chloropyrimidin-2-yl)oxyphenyl] 2-methylpropane-1-sulfonate] | 100% | 100% | 100% | 100% | 100% | 100% | 90% | 100% | 100% |  | 90% |  | 90% | 90% | 100% | 100% | 100% |  | 
3 | COCCS(=O)(=O)Oc1c(F)cccc1Oc1ncc(Cl)cn1 [Example I-52] |  | 90% | 90% | 90% |  | 100% |  | 90% | 100% |  | 100% | 90% | 90% |  | 100% | 80% | 100% |  | 
4 | O=S(=O)(CCl)Oc1ccccc1Oc1ncc(Cl)cn1 [Example I-9] | 90% | 100% |  | 100% |  | 90% | 90% | 100% | 100% |  | 90% |  | 90% | 100% | 100% |  | 100% |  | 
5 | O=S(=O)(CCCC(F)(F)F)Oc1c(F)cccc1Oc1ncc(Cl)cn1 [Example I-49] | 100% | 100% | 90% | 90% | 100% | 100% | 100% | 100% | 100% | 90% | 90% |  | 90% | 100% | 100% | 100% | 100% | 90% | 
6 | O=S(=O)(CCC(F)(F)F)Oc1c(F)cccc1Oc1ncc(Cl)cn1 [Example I-48] | 100% | 100% | 90% | 90% | 100% | 100% | 100% | 100% | 100% | 90% | 90% | 90% | 90% | 100% | 100% | 100% | 100% | 90% | 90%
